Results published in the METLIN SMRT retention time set (Domingo-Almenara et al. 2019).

experiment: gradient 5% acetonitrile 3 min, to 50% in 2 min, to 85% in 15 min, held 3 min, 100 µL/min; settings: column: Zorbax Extend-C18 2.1 x 50 mm; eluents: water / acetonitrile, 0.1% formic acid
Method in brief: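 Data were gathered over 3 months by HPLC coupled to a quadrupole time-of-flight mass spectrometer, operated in positive and negative ionization mode. Mixtures of ~100 pure standards ran on a Zorbax Extend-C18 column (2.1 × 50 mm, 1.8 μm) at 100 μL/min, with water and acetonitrile each containing 0.1% formic acid and dead and dwell volumes of 40 μL and 900 μL. Retention time was read from adduct peaks picked by computer and checked manually.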

Row | Structure (SMILES) | RP-LC retention time [s]
1 | Cc1nc(-c2cn(C(C)C)c3ncccc23)sc1C(=O)NCc1cccnc1 | 657
2 | O=C(Cn1cnc2ccccc21)OCc1cc(-c2ccc3c(c2)OCO3)on1 | 639
3 | Cc1ccc(CN2CCN(C3CCN(C(=O)Nc4ccccc4C(F)(F)F)CC3)C(=O)C2=O)cc1 | 810
4 | O=C(c1cccs1)N1N=C(c2ccc3c(c2)OCO3)CC1c1ccco1 (stereo unspecified) | 919
5 | Cc1cnc(C(=O)N2CC(n3cc(COc4ccc(F)cc4)nn3)C2)cn1 | 731
6 | Cc1nn(C(C)C(=O)NCCCN2CCCCC2)c(=O)c2c(-n3cccc3)n(-c3ccccc3)nc12 (stereo unspecified) | 700
7 | CCCN1C(=O)c2c(C(=O)NCc3cccc(F)c3)ncn2CC1(C)C(=O)NC1CCCC1 (stereo unspecified) | 821
8 | Cc1nn(-c2ccccc2)c2c1N(C(=O)CCC(=O)NCCc1c[nH]c3ccccc13)CCS2 | 850
9 | Cc1nn(CC(=O)NCc2cccnc2)c(=O)c2nc(-c3ccccc3)sc12 | 614
10 | Cc1nc2cccnc2n1CCN1CCN(C(=O)Nc2ccc(F)cc2)CC1 | 584
11 | O=C(NCCn1ncc2c(=O)n(Cc3ccccc3F)cnc21)c1ccc2c(c1)OCO2 | 678
12 | Cc1cccc(CC(=O)NCC2CCN(Cc3ccccc3)CC2)c1 | 566
13 | COc1cccc(CNC(=O)Nc2cccc(-c3ccc(N4CCCCC4)nn3)c2)c1 | 702
14 | c1ccc(CN2CCCC(c3n[nH]c(C4CC4)n3)C2)nc1 (stereo unspecified) | 465
15 | Cc1ccccc1-c1noc(Cn2c(=O)n(-c3ccccc3F)c(=O)c3sccc32)n1 | 1030
16 | CC1CCN(S(=O)(=O)c2ccc(-c3nnc(C(=O)NCc4ccccc4Cl)o3)cc2)CC1 | 1110
17 | COc1ccc(OC)c(N2C(=O)c3cccnc3C2Nc2ccc(C(C)=O)cc2)c1 (stereo unspecified) | 698

Further lines, results first:

Row | RP-LC retention time [s] | Structure (SMILES)
18 | 926 | CCn1c(=O)c2ccccc2n(Cc2nc(-c3ccc(SC)cc3)no2)c1=O
19 | 898 | O=C(COc1ccc2ccccc2c1)NCC(O)c1ccc(C(F)(F)F)cc1 (stereo unspecified)
20 | 651 | Cn1nnc2cc(CNC(=O)c3ccccn3)ccc21
21 | 1010 | Cc1cc(C)cc(NS(=O)(=O)c2cc(-c3nc(C)cs3)cs2)c1
22 | 1020 | O=C(Nc1ccc(N2CCN(c3ccccc3)C2=O)nc1)c1cc(F)cc(F)c1
23 | 842 | O=C(CN1C(=O)C(C(=O)N2CCCC2)Sc2ccccc21)N1CCN(c2ccccc2)CC1 (stereo unspecified)
24 | 1250 | CCOC(=O)c1nn(-c2ccc(F)cc2)c(=O)c2c(NC(=O)C3CCCCC3)scc12
25 | 1020 | CCOc1ccccc1NC(=O)C(=O)NCCc1ccsc1
26 | 1010 | CCOC(=O)c1c(Cc2ccc(Cl)cc2)c[nH]c1C
27 | 650 | CC(C)N1CCC(c2nnc3n2CCN(S(=O)(=O)c2ccc(C(F)(F)F)cc2)C3)C1 (stereo unspecified)
28 | 812 | Cc1ccc(C)c(NC(=O)Cn2ncc3c(c2=O)N(CC2CC2)C(=O)CS3)c1
29 | 978 | Cc1ccc(-n2cc(C(=O)Oc3cccnc3)c3ccccc3c2=O)cc1
30 | 743 | COc1ccc(-c2nc(NC(C)C)c3ccccc3n2)cc1
31 | 625 | CCCNC(=O)CCc1c(-c2ccc(Cl)cc2)nc2ccccn12
32 | 639 | Cc1ccc(C(=O)NCC(=O)Nc2nc3ccccc3[nH]2)c(C)c1
33 | 750 | Cc1sc(NC(=O)C(C)C)nc1-c1ccc2c(c1)NC(=O)CO2
34 | 1230 | Cc1cc(C)cc(-c2nnc(Cc3nc(-c4ccc(Cl)cc4)no3)o2)c1
35 | 751 | Nc1nccc(Oc2ccc(NC(=O)c3c[nH]cc(-c4ccc(F)cc4)c3=O)cc2F)c1Cl
36 | 661 | Cc1oc(-c2ccc(C(=O)NCCN3CCN(C)CC3)cc2)nc1CSc1ccccc1
